Each structure is given as a SMILES string.

Sequence of hDGAT2 (Q96PD7 whole entry): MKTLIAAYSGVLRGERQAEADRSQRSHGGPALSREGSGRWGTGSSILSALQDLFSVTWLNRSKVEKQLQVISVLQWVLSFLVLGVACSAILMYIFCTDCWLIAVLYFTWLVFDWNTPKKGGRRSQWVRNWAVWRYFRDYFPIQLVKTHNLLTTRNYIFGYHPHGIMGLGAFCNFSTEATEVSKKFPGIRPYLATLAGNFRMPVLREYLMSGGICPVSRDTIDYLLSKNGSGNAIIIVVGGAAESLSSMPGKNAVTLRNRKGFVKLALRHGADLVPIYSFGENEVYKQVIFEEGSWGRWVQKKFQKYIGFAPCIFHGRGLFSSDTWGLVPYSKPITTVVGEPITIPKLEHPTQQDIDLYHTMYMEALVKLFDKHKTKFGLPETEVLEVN

For this assay, the target named is hDGAT2 (Homo sapiens (Human), UniProt Q96PD7). Description: DGAT2 Enzymatic Activity Assay. The assay is classed as biochemical. As to conditions: hDGAT2 Sf-9 membrane prep; 25 μM diolein, 10 μM oleoyl-CoA; triolein product by LC/MS/MS; read-out: IC50 values for inhibition of DGAT2. In a few lines:
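Membranes from Sf-9 cells expressing untagged hDGAT2 (10 ng/μL) incubated at room temperature with 25 μM diolein and 10 μM oleoyl-CoA in 100 mM Tris pH 7.0, 20 mM MgCl2, 5% ethanol. Triolein product quantified by LC/MS/MS against spiked internal standard; IC50 from 4-parameter sigmoidal fit.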
Turning to `Cc1noc(C2CC2C(=O)NCc2ccc(-c3cccc(OC(F)(F)F)c3)c3c2CN(C(=O)NC2CCS(=O)(=O)C2)CC3)n1` (stereo not shown) [Example 78, N-(1,1-dioxidotetrahydrothiophen-3-yl)-8-((2-(3-methyl-1,2,4-oxadiazol-5-yl)cyclopropanecarboxamido)methyl)-5-(3-(trifluoromethoxy)phenyl)-3,4-dihydroisoquinoline-2(1H)-carboxamide], the IC50 was determined as 892 nM.
To `Cc1noc(C2CC2C(=O)NCc2ccc(-c3cccc(OC(F)(F)F)c3)c3c2CN(CC(=O)N[C@H](C)c2ccccc2)CC3)n1` (stereo partly drawn) [Example 88, 2-(3-methyl-1,2,4-oxadiazol-5-yl)-N-((2-(2-oxo-2-(((trans)-1-phenylethyl)amino)ethyl)-5-(3-(trifluoromethoxy)phenyl)-1,2,3,4-tetrahydroisoquinolin-8-yl)methyl)cyclopropanecarboxamide] belongs 7600 nM.
`COc1cccc(-c2ccc(CNC(=O)[C@@H]3C[C@H]3c3ccccc3)c3c2CCN(C(=O)NC2(C)COC2)C3)c1` (relative stereo) [Example 68, 5-(3-methoxyphenyl)-N-(3-methyloxetan-3-yl)-8-(((trans)-2-phenylcyclopropanecarboxamido)methyl)-3,4-dihydroisoquinoline-2(1H)-carboxamide]: the half-inhibitory concentration (IC50) worked out at 13.8 nM.
Take `Cc1noc(C2CC2C(=O)NCc2ccc(-c3cccc(OC(F)(F)F)c3)c3c2CN(CC(=O)NC(C)(C)C)CC3)n1` (stereo not shown) [Example 80, N-((2-(2-(tert-butylamino)-2-oxoethyl)-5-(3-(trifluoromethoxy)phenyl)-1,2,3,4-tetrahydroisoquinolin-8-yl)methyl)-2-(3-methyl-1,2,4-oxadiazol-5-yl)cyclopropanecarboxamide]: the half-maximal inhibitory concentration (IC50) was determined as 477 nM.
To `CCOC(=O)c1cncc(-c2ccc(CNC(=O)[C@@H]3C[C@H]3c3ccccc3)c3c2CCN(C(=O)NC(C)(C)C)C3)c1` (relative stereo) [Example 46, ethyl 5-(2-(tert-butylcarbamoyl)-8-(((trans)-2-phenylcyclopropanecarboxamido)methyl)-1,2,3,4-tetrahydroisoquinolin-5-yl)nicotinate] belongs 0.66 nM.
As for `Cc1noc(C)c1-c1ccc(CNC(=O)[C@@H]2C[C@H]2c2ccccc2)c2c1CCN(C(=O)NC(C)(C)C)C2` (relative stereo) [Example 41, N-(tert-butyl)-5-(3,5-dimethylisoxazol-4-yl)-8-(((trans)-2-phenylcyclopropanecarboxamido)methyl)-3,4-dihydroisoquinoline-2(1H)-carboxamide], the IC50 was determined as 1440 nM.
The figure for `COC(=O)c1cccc(-c2ccc(CNC(=O)[C@H]3C[C@@H]3c3ccccc3)c3c2CCN(C(=O)NC2(C)CC2)C3)c1` (relative stereo) [Example 54, methyl 3-(2-((1-methylcyclopropyl)carbamoyl)-8-(((trans)-2-phenylcyclopropanecarboxamido)methyl)-1,2,3,4-tetrahydroisoquinolin-5-yl) benzoate] is 1.13 nM; for `Cn1nccc1-c1ccc(CNC(=O)[C@@H]2C[C@H]2c2ccccc2)c2c1CCN(C(=O)NC(C)(C)C)C2` (relative stereo) [Example 30, N-(tert-butyl)-5-(1-methyl-1H-pyrazol-5-yl)-8-(((trans)-2-phenylcyclopropanecarboxamido)methyl)-3,4-dihydroisoquinoline-2(1H)-carboxamide] it is 1170 nM.
The figure for `Cc1noc([C@@H]2C[C@H]2C(=O)NCc2ccc(-c3cccc(OC(F)(F)F)c3)c3c2CN(CC(=O)N2COCC2(C)C)CC3)n1` (relative stereo) [Example 103, (trans)-N-((2-(2-(4,4-dimethyloxazolidin-3-yl)-2-oxoethyl)-5-(3-(trifluoromethoxy)phenyl)-1,2,3,4-tetrahydroisoquinolin-8-yl)methyl)-2-(3-methyl-1,2,4-oxadiazol-5-yl)cyclopropanecarboxamide] is 1760 nM; for `COC(=O)c1cccc(-c2ccc(CNC(=O)C3CC3c3ccccc3)c3c2CCN(C(=O)C2CC2C)C3)c1` (stereo not shown) [Example 131, methyl 3-(2-(2-methylcyclopropanecarbonyl)-8-((2-phenylcyclopropanecarboxamido)methyl)-1,2,3,4-tetrahydroisoquinolin-5-yl)benzoate] it is 360 nM; for `COc1cccc(-c2ccc(CNC(=O)C3CC3c3ccccc3)c3c2CCN(C(=O)NC2CC(F)(F)C2)C3)c1` (stereo not shown) [Example 57, N-(3,3-difluorocyclobutyl)-5-(3-methoxyphenyl)-8-((2-phenylcyclopropanecarboxamido)methyl)-3,4-dihydroisoquinoline-2(1H)-carboxamide] it is 87 nM.
The figure for `COc1cccc(-c2ccc(CNC(=O)[C@H]3C[C@@H]3c3ccccc3)c3c2CCN(Cc2cc(F)cc(F)c2)C3)c1` (relative stereo) [Example 92, (trans)-N-((2-(3,5-difluorobenzyl)-5-(3 methoxyphenyl)-1,2,3,4-tetrahydroisoquinolin-8-yl)methyl)-2-phenylcyclopropanecarboxamide] is 1140 nM.
As to `CCC(C)CNC(=O)N1CCc2c(-c3cccc(OC)c3)ccc(CNC(=O)[C@@H]3C[C@H]3c3ccccc3)c2C1` (relative stereo) [Example 75, 5-(3-methoxyphenyl)-N-(2-methylbutyl)-8-(((trans)-2-phenylcyclopropanecarboxamido)methyl)-3,4-dihydroisoquinoline-2(1H)-carboxamide], the IC50 is 232 nM.
The figure for `COC(=O)c1cccc(-c2ccc(CNC(=O)C3CC34CCCCC4)c3c2CCN(C(=O)NC(C)(C)C)C3)c1` (stereo not shown) [Example 17, methyl 3-(2-(tert-butylcarbamoyl)-8-((spiro[2.5]octane-1-carboxamido)methyl)-1,2,3,4-tetrahydroisoquinolin-5-yl)benzoate] is 2.2 nM; for `COc1cccc(-c2ccc(CNC(=O)[C@@H]3C[C@H]3c3ccccc3)c3c2CCN(C(=O)C(C)(C)C)C3)c1` (relative stereo) [Example 113, (trans)-N-((5-(3-methoxyphenyl)-2-pivaloyl-1,2,3,4-tetrahydroisoquinolin-8-yl)methyl)-2-phenylcyclopropanecarboxamide] it is 887 nM; for `COc1cccc(-c2ccc(CNC(=O)[C@@H]3C[C@H]3c3ccccc3)c3c2CCN(C(=O)NCCCC(=O)O)C3)c1` (relative stereo) [Example 64, 4-(5-(3-methoxyphenyl)-8-(((trans)-2-phenylcyclopropanecarboxamido)methyl)-1,2,3,4-tetrahydroisoquinoline-2-carboxamido)butanoic acid] it is 4280 nM.
The figure for `CCn1ccnc1CN1CCc2c(-c3cccc(OC(F)(F)F)c3)ccc(CNC(=O)C3C[C@H]3c3nc(C)no3)c2C1` (stereo partly shown) [Example 102] is 456 nM.
On to `CC(C)(C)NC(=O)N1CCc2c(-c3cccc(-n4ccnn4)c3)ccc(CNC(=O)[C@@H]3C[C@H]3c3ccccc3)c2C1` (relative stereo) [Example 5, 5-(3-(1H-1,2,3-triazol-1-yl)phenyl)-N-(tert-butyl)-8-(((trans)-2-phenylcyclopropanecarboxamido)methyl)-3,4-dihydroisoquinoline-2(1H)-carboxamide], for which the IC50 was determined as 11.4 nM.
In the case of `Cc1noc([C@@H]2CC2C(=O)NCc2ccc(-c3cccc(OC(F)(F)F)c3)c3c2CN(CC(=O)N2[C@H](C)COC[C@H]2C)CC3)n1` (stereo partly drawn) [Example 108, (trans)-N-((2-(2-((3R,5R)-3,5-dimethylmorpholino)-2-oxoethyl)-5-(3-(trifluoromethoxy)phenyl)-1,2,3,4-tetrahydroisoquinolin-8-yl)methyl)-2-(3-methyl-1,2,4-oxadiazol-5-yl)cyclopropanecarboxamide], the IC50 was 7380 nM.
The figure for `COC(=O)c1cccc(-c2ccc(CNC(=O)C3CC3c3ccccc3)c3c2CCN(C(=O)c2cccnc2)C3)c1` (stereo not shown) [Example 134, methyl 3-(2-nicotinoyl-8-((2-phenylcyclopropanecarboxamido)methyl)-1,2,3,4-tetrahydroisoquinolin-5-yl)benzoate] is 3560 nM.
To `CC(=O)Nc1cccc(-c2ccc(CNC(=O)[C@@H]3C[C@H]3c3ccccc3)c3c2CCN(C(=O)NC(C)(C)C)C3)c1` (relative stereo) [Example 36, 5-(3-acetamidophenyl)-N-(tert-butyl)-8-(((trans)-2-phenylcyclopropanecarboxamido)methyl)-3,4-dihydroisoquinoline-2(1H)-carboxamide] belongs 352 nM.
To `CC(C)(C)NC(=O)N1CCc2c(-c3ccn4ncnc4c3)ccc(CNC(=O)[C@@H]3C[C@H]3c3ccccc3)c2C1` (relative stereo) [Example 43, 5-([1,2,4]triazolo[1,5-a]pyridin-7-yl)-N-(tert-butyl)-8-(((trans)-2-phenylcyclopropanecarboxamido)methyl)-3,4-dihydroisoquinoline-2(1H)-carboxamide] belongs 3130 nM.
On to `CC(C)(C)NC(=O)N1CCc2c(-c3cncc(C(F)(F)F)c3)ccc(CNC(=O)[C@@H]3C[C@H]3c3ccccc3)c2C1` (relative stereo) [Example 47, N-(tert-butyl)-8-(((trans)-2-phenylcyclopropanecarboxamido)methyl)-5-(5-(trifluoromethyl)pyridin-3-yl)-3,4-dihydroisoquinoline-2(1H)-carboxamide], for which the concentration for half-maximal inhibition (IC50) worked out at 173 nM.
The figure for `COC(=O)C1CCN(C(=O)N2CCc3c(-c4cccc(OC)c4)ccc(CNC(=O)[C@@H]4C[C@H]4c4ccccc4)c3C2)CC1` [Example 63, methyl 1-(5-(3-methoxyphenyl)-8-(((trans)-2-phenylcyclopropanrcarboxamido)methyl)-1,2,3,4-tetrahydroisoquinoline-2-carbonyl)piperidine-4-carboxylate] is 3090 nM; for `COC(=O)c1cccc(-c2ccc(CNC(=O)C3CC3c3ccccc3)c3c2CCN(C(=O)c2ccc(F)cc2)C3)c1` (stereo not shown) [Example 141, methyl 3-(2-(4-fluorobenzoyl)-8-((2-phenylcyclopropanecarboxamido)methyl)-1,2,3,4-tetrahydroisoquinolin-5-yl)benzoate] it is 279 nM.

(Values after patent US10568876B2, “Tetrahydroisoquinoline derivatives useful as inhibitors of diacylglyceride O-acyltransferase 2” (Merck Sharp & Dohme Corp., priority 2014, dated 2020).)
